Counter-ions that a name gives are not always drawn. Where no end group is shown, it is not given here.
Legend:
[1] = due to its amphiphilic character; cited from earlier work
Aichi H3N2 = format: cell-based, Influenza A/Aichi/2/68 H3N2
Aichi H3N2 virus = format: binding, Influenza A/Aichi/2/68 H3N2 X31; conditions: for Virus binding on peptide-modified surfaces: pH 7.4
[2] = system: Aichi H3N2 binding to fetuin; experiment: SPR inhibition of virus binding to immobilized fetuin; set-up: species or system Influenza A/Aichi/2/68 H3N2; conditions: Aichi H3N2 binding to fetuin-immobilized SPR surface, virus preincubated with inhibitor 37°C at least 15 min, four parameter logistic fit, mean ± SEM n≥2
Method: Measurements were performed on a Biacore™ T200 (GE-Healthcare Bio-Sciences AB) using CM5 chips, and running buffer HBSP (10 mM Hepes, 150 mM NaCl, 0.05% Tween 20, pH 7.4) at 25°C. Peptides and proteins were immobilized via amine coupling with EDC/NHS at a flow rate of 10 μl min^-1, according to the manufacturer’s instructions (GE Healthcare). Optimum preconcentration was evaluated before, using acetate and phosphate buffers (10 mM) of pH 4 to 7, and ligand concentrations of 10 μg ml^-1. For the immobilization of biotinylated sialyllactose (Lectinity), neutravidin (Thermo Fisher Scientific) (100 μg ml^-1) was immobilized by amine coupling at pH 5.5 enabling high ligand density. Biotinylated sialyllactose was then injected at a concentration of 10 μg ml^-1 in HBSP for 3 min.
A constant concentration of 50 or 100 μg ml^-1 Aichi H3N2 virus was used as analyte, while the concentration of the inhibitors was varied. The suspensions of virus and inhibitor were mixed and subsequently incubated on a Thriller® thermoshaker at 500 rpm and 37°C for at least 15 min to reach equilibrium before injection on the SPR surface. The inhibitors used were peptides or α-2,3’- and α-2,6’-sialyllactose (Carbosynth). […] Inhibition was calculated against the mean value of at least five binding events with the virus alone, using the sigmoidal four parameter logistic fit (Origin).

HA from Aichi H3N2 = target: T1, HA from Aichi H3N2 (Influenza A virus, UniProt P03437); experiment: biochemical; format: binding, Influenza A/Aichi/2/68 H3N2
T1 construct: purchased Sino Biological 11707-V08H

[3] = system: Recombinant neuraminidase of Influenza A virus (A/Aichi/2/1968, H3N2); format: biochemical
[4] = target: hemagglutinin (HA) of low pathogenic influenza A/Mute Swan/Rostock/R901/2006 H7N1 K3141, on virus particles (influenza A virus A/Mute Swan/Rostock/R901/2006 H7N1); experiment: SPR
[5] = target: hemagglutinin (HA) of low pathogenic influenza A/Mute Swan/Rostock/R901/2006 H7N1 K3141, on virus particles (influenza A virus A/Mute Swan/Rostock/R901/2006 H7N1)

RRKKAAVALLPAVLLALLAP [EB]
Micelle formation [1]: forms micelles | fold lower Ki(HAI) as compared to PeB^GF (Aichi H3N2): 20 fold

LGVIWAGGNTNY [PeC]
Minimum detection level (lowest virus concentration showing binding 3 times above the SPR response of a buffer control) (Aichi H3N2 virus): 6.25 μg Aichi H3N2 virus protein ml^-1 | Virus binding on peptide-modified surfaces (Aichi H3N2 virus): Significant virus binding

SGFLLISNGVHWV-NH2 [PeA]
Virus binding on peptide-modified surfaces (Aichi H3N2 virus): not

ARDFYDYDVFYYAMD-NH2 [PeB]
IC50 [2]: 75 ± 13 µM | IC50 ([2]; listed as PeB^GF): 13 ± 3 µM | Kd (HA from Aichi H3N2): 56.8 µM

CC(=O)N[C@H]1[C@H]([C@H](O)[C@H](O)CO)OC(C(=O)O)=C[C@@H]1O [DANA, N-acetyl-2,3-dehydro-2-deoxy-neuraminic acid disodium salt]
IC50 [3]: 2200 ± 300 nM

ARDFYDYDVFYYAMD-NH2 [PeB (…-amide)]
IC50 [4]: 40 µM | IC50 of microneutralization of Rostock H7N1 on MDCK II cells [5]: 177 µM

ARDFYGYDVFFYAMD-NH2 [PeB^GF (…-amide)]
IC50 [4]: 30 µM | IC50 of microneutralization of Rostock H7N1 on MDCK II cells [5]: 96 µM

— paper PMC4944999 (PLoS ONE, 2016)
